Test results published in patent US8895502B2, “β2-glycoprotein I peptide inhibitors” (Kansas State University Research Foundation, priority 2010, dated 2014).
Entries after “also recorded” stand apart in the source; their conditions may differ. Ends that are not written are not given here.

Key:
PGE2 = test: Intestinal IR, ex vivo PGE2 generation; format: in vivo, mouse; set-up: key to PGE2 Production: + indicates significant difference from Sham treated mice; − indicates not significantly different from C57B1/6 sham treated mice; +/− indicates no significant difference from either C57B1/6 mice subjected to either Sham or IR; settings: for IR-induced intestinal PGE2 production: C57Bl/6 mice, peptide 40 μM prior to IR
Procedure: C57Bl/6 and Rag-1^−/− mice were subjected to ischemia followed by reperfusion similar to previously described studies (Moses, T. et al., J. Leukoc. Biol. 86:971-980 (2009)). Briefly, ketamine (16 mg/kg) and xylazine (80 mg/kg) were used to anesthetize the mice. Buprenorphine (0.06 mg/kg) was then administered for pain. A midline laparotomy was performed to expose the abdominal cavity of the mice, which were then allowed to equilibrate for 30 min. Body temperature was maintained at 37° C. using a water-circulating heat pad. Placing a warm, saline moistened piece of gauze over the abdominal cavity prevented peritoneal desiccation. […] Ischemia was noted by the intestine changing from a pink color to a gray color. After 30 min of ischemia, the clamp was removed and the intestines were allowed to reperfuse for 5, 10, 15, or 120 min. […] Peptides 296, 305, and 296Cys to Ser were dissolved in N. Saline (0.9% NaCl) and injected i.v. in 100-μL volumes. Peptides 100 and 181 were dissolved in DMSO prior to diluting 1/100 in N. Saline. Additional mice received peptides prior to Sham treatment.
Ex vivo generation of eicosanoids by mid-jejunal tissue was determined. Immediately after collection, a 2-cm intestinal section from each mouse was minced, washed, resuspended in 37° C. oxygenated Tyrode's buffer (Sigma-Aldrich; St. Louis, Mo.), incubated at 37° C. for 20 minutes, and the supernatant collected. PGE2 and LTB4 concentrations were determined using enzyme immunoassay kits (Cayman Chemical; Ann Arbor, Mich.). IL-6 and IL-12 concentrations were determined using a Milliplex MAP immunoassay kit (Millipore) and read on a Milliplex Analyzer (Millipore). All eicosanoid and cytokine concentrations were standardized to the total tissue protein content.
Total peroxidase, LTB4, PGE2, IL-6, IL-12p40, and IL-12p70 concentrations were determined using the procedures described in Example 1.

CD31 (PECAM-1) = test: Intestinal IR, CD31 immunohistochemistry; format: in vivo, mouse; set-up: key to CD31 Deposition: + indicates significant difference from Sham treated mice; − indicates not significantly different from C57B1/6 sham treated mice; +/− indicates no significant difference from either C57B1/6 mice subjected to either Sham or IR; settings: for CD31 Deposition: C57Bl/6 mice subjected to IR, peptide 40 μM i.v. 5 min prior to artery occlusion; for expression of adhesion molecule CD31 after IR: C57Bl/6 mice, peptide prior to IR
Procedure: C57Bl/6 and Rag-1^−/− mice were subjected to ischemia followed by reperfusion similar to previously described studies (Moses, T. et al., J. Leukoc. Biol. 86:971-980 (2009)). Briefly, ketamine (16 mg/kg) and xylazine (80 mg/kg) were used to anesthetize the mice. Buprenorphine (0.06 mg/kg) was then administered for pain. A midline laparotomy was performed to expose the abdominal cavity of the mice, which were then allowed to equilibrate for 30 min. Body temperature was maintained at 37° C. using a water-circulating heat pad. Placing a warm, saline moistened piece of gauze over the abdominal cavity prevented peritoneal desiccation. […] Ischemia was noted by the intestine changing from a pink color to a gray color. After 30 min of ischemia, the clamp was removed and the intestines were allowed to reperfuse for 5, 10, 15, or 120 min. […] Mice treated with the various β2-GPI peptides underwent the same procedure with i.v. administration of the peptides (40 μM) 5 min prior to artery occlusion. Peptides 296, 305, and 296Cys to Ser were dissolved in N. Saline (0.9% NaCl) and injected i.v. in 100-μL volumes. Peptides 100 and 181 were dissolved in DMSO prior to diluting 1/100 in N. Saline. Additional mice received peptides prior to Sham treatment.
After euthanasia, an additional 2-cm intestinal section from each mouse was immediately snap frozen in O.C.T. freezing medium and 8 μm sections were placed on slides for immunohistochemistry. The C3 deposition and F4/80 expression on the tissue sections were detected by staining with a purified rat-anti-mouse C3 (Hycult Biotechnologies; Plymouth Meeting, Pa.) or F4/80 (eBioscience; San Diego, Calif.) antibody followed by a Texas-red conjugated donkey-anti-rat IgG secondary antibody (Jackson Immunoresearch). CD31 (PECAM-1) and CD106 (VCAM-1) were detected by FITC conjugated rat anti-mouse CD31 or CD106 (Biolegend; San Diego, Calif.) antibodies. Each experiment contained serial sections stained with the appropriate isotype control antibodies. All slides were mounted with ProLong Gold (Invitrogen). Images were obtained at room temperature using a Nikon Eclipse 80i microscope equipped with a CoolSnap CF camera (Photometrics) and analyzed using Metavue software (Molecular Devices). The fluorescence was semi-quantitated using Image J software (NIH) using the fluorescent area fraction after setting threshold for each experiment. The average of the isotype control was subtracted from each photo.

[1] = C57Bl/6 mice subjected to IR, peptide 40 μM i.v. 5 min prior to artery occlusion
[2] = 10 μM peptide 5 min prior to IR
[3] = administered at 15 min post-reperfusion

Row | Substance | PGE2 Production (PGE2; [1]) | IR-induced intestinal PGE2 production (PGE2) | CD31 Deposition (CD31 (PECAM-1)) | expression of adhesion molecule CD31 after IR (CD31 (PECAM-1)) | PGE2 Production (PGE2; [2]) | PGE2 Production (PGE2; [3])
1 | H-IHFYCKNKEKKCSYTVEAHCRDGTI-OH (cysteine pairing not given here) [peptide 296] | − | attenuated; also recorded: blocked | − | inhibited |  | 
2 | H-IHFYSKNKEKKSSYTVEAHSRDGTI-OH [peptide 296Cys-Ser] | − | attenuated; also recorded: blocked | − | inhibited | optimally attenuated | attenuated
3 | H-IPSCFKEHSSLAFWKTDASELTPC-NH2 (cysteine pairing not given here) [peptide 322, 18] | + | sustained inflammation similar to untreated mice | + |  |  | 
4 | H-KKCSYTVEAHCRDGTIEIPSCFKEHS-OH (cysteine pairing not given here) [peptide 305, 10] | +/− | did not attenuate; also recorded: but not eicosanoid production | + | inhibited | optimally attenuated | attenuated
5 | H-KNISFACNPGFFLNG-NH2 [peptide 100, 16, reference compound] | + | sustained inflammation similar to untreated mice | + | significantly different from both Sham and IR treated mice |  | 
